Laboratory results taken from patent publication US12390472B2 (SUZHOU SINOVENT PHARMACEUTICALS CO., LTD., priority 2018, dated 2025).
Where two headings read alike, the source gives them in different places.

Key:
[1] = test system: WSU-DLCL2 cells; experiment: Experiment on WSU-DLCL2 cell proliferation (Calcein-AM); format: cell-based
Procedure: WSU-DLCL2 cells were plated in a 96-well plate and 100 uL of cells (a density of 1×10^5 cells/mL) and 50 uL of compound stock at 3-fold concentration was added to each well, and the final volume was 150 uL/well. After 6 days of culturing, on day 7, the cells in the well plate were mixed well by pipetting, and 50 uL of the cell suspension was pipetted to be tested for cell viability using Calcein-AM. 50 uL of the cell suspension was added to a 96-well plate coated by poly-D-Lysine, and then 50 uL of HBSS containing 2 uM Calcein-AM was added to make the final concentration of Calcein-AM 1 uM. After incubation for 10 min at room temperature, the cells were rapidly centrifuged to be deposited on the bottom of the plate. The cells were cultured in the incubator for another 40 min and then the plate was read on Acumen.
The remaining cells were diluted and then plated in a 96-well plate, and 100 uL of cells and 50 uL of a compound at 3-fold concentration were added to each well for further culturing until day 14, and the cell viability was detected as described above. The IC50 was calculated.

[2] = test system: Pfeiffer cells; experiment: Experiment on Pfeiffer cell proliferation (CellTiter-Glo); format: cell-based, human
Procedure: 90 uL of cells were added to each well of a 96-well plate at 12000 cells/well, and cell-free culture medium was added to blank control wells. The plate was incubated overnight in an incubator at 37° C., 5% CO2 and 100% relative humidity. The compounds were diluted from highest to lowest concentration gradient with DMSO to make stock solutions at 400-fold and 10-fold concentration. 10 μL of 10× compound working solution was added to the cell culture plate, and the total concentration of the compound was detected from 10 μM, 9 concentration points in total, and 3-fold serial dilution was performed. 10 μL of DMSO-cell culture medium mixture solution was added to the vehicle control wells and blank control wells. The final concentration of DMSO was 0.25%. The plate was put back in the incubator for another 7 days of culturing.
The cell culture plate cultured for 7 days was taken out of the incubator, and the suspended cells in the 96-well plate were mixed well by pipetting multiple times. 74 uL of fresh cell culture medium was added to a new 96-well plate, and 16 uL of cell suspension was pipetted from the 96-well plate with cells mixed well by pipetting into the new 96-well plate to bring the total volume to 90 uL. Cells in the new 96-well plate were treated with the compound. The new 96-well plate was put back in the incubator for another 7 days of culturing, and then cell viability was detected directly.
84 μL of cell suspension was taken from the cell culture plate for cell viability detection.
CellTiter-Glo buffer and substrate were thawed and balanced to room temperature. The CellTiter-Glo buffer was added to a bottle of CellTiter-Glo substrate to dissolve the substrate, thereby preparing CellTiter-Glo working solution. The bottle was subjected to slow vortex shaking to completely dissolve the substrate. The cell culture plate was taken out and balanced to room temperature for 30 min. 50 μL of CellTiter-Glo working solution was added to each well. The cell plate was wrapped with aluminum foil to keep out of light. The plate was shaken on an orbital shaker for 2 min to induce cell lysis. The plate was placed at room temperature for 10 min to stabilize the luminescence signals. The luminescence signals were detected on 2104 En Vision plate reader.
Inhibition rates of compounds at different concentrations were calculated in Excel, followed by plotting the inhibition curves and calculating relevant parameters including minimum (%), maximum (%), and absolute IC50 using GraphPad Prism software.

[3] = In vivo pharmacokinetic properties in mice; design: species or system mouse; Cmax: unit: ng/mL; conditions: male ICR mice; for F: intragastric 250 mg/kg vs intravenous 5 mg/kg; for AUC0-∞ / CL / Cmax / T1/2 / Tmax: single intravenous 5 mg/kg and intragastric 250 mg/kg study
Procedure: Male ICR mice were divided into different groups with 3 mice in each group, and single intravenous injection and single intragastric administration were conducted respectively. The compounds were formulated with 10% DMSO/90% (20% Captisol) to reach an appropriate concentration and then administered intravenously at 5 mg/kg. The compounds were formulated with 0.5% CMC-Na/0.1% Tween 80 (pH=3-4) to reach an appropriate concentration and then administered intragastrically at 250 mg/kg. Blood was taken at 5 min, 15 min, 30 min, 1 h, 2 h, 4 h, 6 h, 8 h and 24 h after administration, and then subjected to EDTA-K2 anticoagulation. The concentration of the compound in the plasma was quantitatively detected by an LC-MS/MS method.

[4] = test system: subcutaneous xenograft tumor model of human B lymphocyte Pfeiffer; experiment: In vivo efficacy in subcutaneous xenograft tumor model of human B lymphocyte Pfeiffer; design: species or system mouse; conditions: SCID Beige mice, 100 mg/kg p.o. QD 21 days, tumor volume 21 days after administration
Procedure: Human B lymphocyte strain Pfeiffer was cultured in vitro, in a monolayer way, in a RPMI-1640 medium containing 10% fetal bovine serum, 100 U/mL penicillin and 100 μg/mL streptomycin in an incubator at 37° C./5% CO2. Conventional medium refreshment and subculturing were carried out twice a week, and cells in logarithmic growth phase were collected and used for tumor inoculation after being counted.
Female SCID Beige mice, aged 6-8 weeks and weighed 18-22 g were used in the experiment. The experiment started after 7-day adaptive feed.
Each mouse was inoculated subcutaneously with 10×10^6 Pfeiffer cells in a volume of 0.2 mL in the right side of the neck. The cells were suspended with PBS and matrigel (volume ratio 1:1). After the average tumor volume reached 130 mm^3, the mice were divided into groups with 8 mice per group for administration. The administration volume was 10 uL/g and the dose was 100 mg/kg if there's no special labeling ((p.o. administration, QD, continuous administration for 21 days).
Animal body weights were measured twice weekly and animal mortality and side effects within each group were recorded based on the number of animals in the group.
The experimental indices were to investigate whether tumor growth was inhibited or delayed or the tumor was cured. Tumor diameters were measured twice weekly using a vernier caliper. The tumor volume was calculated according to the following formula: V=0.5 a×b^2, where a and b represent the long diameter and short diameter of the tumor, respectively. The tumor growth inhibitions (TGIs) of the compounds were evaluated by T/C (%). The percentage value of T/C (%) is an index for reflecting the tumor growth inhibition, where T and C represent the average tumor volume of the administration group and the control group, respectively, at a certain day.
The tumor growth inhibition rate was calculated according to the following formula: TGI (%)=(1−(Ti−T0)/(Vi−V0))×100, where Ti is the average tumor volume of a certain administration group on a certain day, T0 is the average tumor volume of the administration group at the start of administration, Vi is the average tumor volume of the vehicle control group on a certain day (same day as Ti) and V0 is the average tumor volume of the vehicle control group at the start of administration.
Relative tumor volumes at each time point for each group were statistically analyzed and differences among groups were assessed based on the data. The statistical method used for testing was one-way ANOVA.

[5] = target: EZH2 enzyme complex (Homo sapiens (Human), UniProt Q15910); experiment: Test on EZH2 inhibitory activity (TR-FRET); format: biochemical; conditions: EZH2 enzyme complex 25 ng/uL, histone H3 peptide 4 uM, SAM 2 uM, 300 min; read-out: IC50 of EZH2 inhibition
Procedure: • EZH2 enzyme complex: 25 ng/uL • Histone H3 peptide substrate: 4 uM • SAM: 2 uM • Reaction time: 300 min Procedures • 1. Each compound disclosed herein was diluted with 1×HMT buffer and transferred to a 384-well assay plate at 3 uL per well; • 2. The EZH2 enzyme solution was prepared with 1×HMT buffer and transferred to the 384-well assay plate at 2 uL per well; • 3. The above assay plate was incubated for 30 min; • 4. A mixture solution of SAM and histone H3 peptide substrate at 2-fold concentration was prepared with 4×HMT buffer; • 5. 5 uL of the mixture solution of SAM and substrate was added to each well of the assay plate to react at room temperature, and the assay plate was sealed with plastic; • 6. After incubation for 5 h, 10 uL of TR-FRET detection buffer containing Tb-labeled antibody and dye-labeled receptor was added to each well of the assay plate; • 7. After incubation for 1 h at room temperature, the assay plate was detected; • 8.

[6] = WSU-DLCL2, Day 7, read-out: IC50 WSU-DLCL2 proliferation Day 7
[7] = WSU-DLCL2, Day 14, read-out: IC50 WSU-DLCL2 proliferation Day 14
[8] = Day 7, read-out: IC50 Pfeiffer proliferation Day 7
[9] = Day 14, read-out: IC50 Pfeiffer proliferation Day 14

Sequence of EZH2 enzyme complex (Q15910 whole entry): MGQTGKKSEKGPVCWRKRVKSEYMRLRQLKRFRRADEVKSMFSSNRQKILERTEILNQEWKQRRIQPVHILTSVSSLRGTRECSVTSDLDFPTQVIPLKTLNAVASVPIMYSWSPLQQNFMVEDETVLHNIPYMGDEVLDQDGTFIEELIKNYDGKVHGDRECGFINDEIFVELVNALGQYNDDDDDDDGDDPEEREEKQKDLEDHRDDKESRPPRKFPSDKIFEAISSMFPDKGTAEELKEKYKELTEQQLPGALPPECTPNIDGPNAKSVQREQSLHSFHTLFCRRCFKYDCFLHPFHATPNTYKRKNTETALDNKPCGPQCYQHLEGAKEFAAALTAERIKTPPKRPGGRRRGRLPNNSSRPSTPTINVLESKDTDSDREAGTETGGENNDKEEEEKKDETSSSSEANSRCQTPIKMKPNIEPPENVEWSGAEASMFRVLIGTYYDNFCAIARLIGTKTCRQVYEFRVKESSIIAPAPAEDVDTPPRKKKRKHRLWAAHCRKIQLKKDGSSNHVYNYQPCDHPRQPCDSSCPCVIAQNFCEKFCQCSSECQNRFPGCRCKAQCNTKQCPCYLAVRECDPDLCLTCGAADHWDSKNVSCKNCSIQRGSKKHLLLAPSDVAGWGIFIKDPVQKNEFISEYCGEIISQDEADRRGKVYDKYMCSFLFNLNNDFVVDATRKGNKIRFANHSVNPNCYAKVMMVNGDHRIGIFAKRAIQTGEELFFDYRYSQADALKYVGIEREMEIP
Sequence of EZH2 enzyme complex (O75530 whole entry partner): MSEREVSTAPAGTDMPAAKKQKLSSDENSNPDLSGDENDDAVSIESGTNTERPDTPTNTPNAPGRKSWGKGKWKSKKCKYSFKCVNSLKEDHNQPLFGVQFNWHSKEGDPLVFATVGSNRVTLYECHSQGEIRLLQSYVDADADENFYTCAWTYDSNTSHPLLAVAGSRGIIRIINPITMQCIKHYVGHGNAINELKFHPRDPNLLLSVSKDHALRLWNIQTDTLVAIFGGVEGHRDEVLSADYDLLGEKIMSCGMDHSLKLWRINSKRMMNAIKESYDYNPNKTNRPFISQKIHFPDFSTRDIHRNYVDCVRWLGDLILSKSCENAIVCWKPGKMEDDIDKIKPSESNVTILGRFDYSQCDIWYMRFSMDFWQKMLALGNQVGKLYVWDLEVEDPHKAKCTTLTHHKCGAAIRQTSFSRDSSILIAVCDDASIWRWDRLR
Sequence of EZH2 enzyme complex (Q15022 whole entry partner): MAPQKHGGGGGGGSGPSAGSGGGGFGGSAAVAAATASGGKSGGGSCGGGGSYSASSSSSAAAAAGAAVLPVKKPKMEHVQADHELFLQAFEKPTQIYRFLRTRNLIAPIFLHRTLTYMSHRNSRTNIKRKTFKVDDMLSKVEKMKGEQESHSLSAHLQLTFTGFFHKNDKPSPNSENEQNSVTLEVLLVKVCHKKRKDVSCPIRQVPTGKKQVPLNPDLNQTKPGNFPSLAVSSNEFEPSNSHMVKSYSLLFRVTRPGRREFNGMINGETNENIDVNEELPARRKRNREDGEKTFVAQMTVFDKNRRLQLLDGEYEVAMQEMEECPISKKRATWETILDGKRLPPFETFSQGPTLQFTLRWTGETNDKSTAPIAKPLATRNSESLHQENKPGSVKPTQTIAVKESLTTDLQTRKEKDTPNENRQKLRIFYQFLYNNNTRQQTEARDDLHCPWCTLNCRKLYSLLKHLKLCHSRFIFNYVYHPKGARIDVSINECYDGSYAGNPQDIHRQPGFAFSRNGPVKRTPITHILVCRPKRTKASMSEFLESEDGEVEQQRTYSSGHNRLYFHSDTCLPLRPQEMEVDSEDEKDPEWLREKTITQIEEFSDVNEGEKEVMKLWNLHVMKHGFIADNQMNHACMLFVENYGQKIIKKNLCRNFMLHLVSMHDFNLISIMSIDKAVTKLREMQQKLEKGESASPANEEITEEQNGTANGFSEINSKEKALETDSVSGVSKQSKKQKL

| SMILES | IC50 [1, 6] | IC50 [1, 7] | IC50 [2, 8] | IC50 [2, 9] | F [3] | AUC0-∞ [3] | CL [3] | Cmax [3] | T1/2 [3] | Tmax [3] | TGI [4] | IC50 [5] |
| --- | --- | --- | --- | --- | --- | --- | --- | --- | --- | --- | --- | --- |
| CCN(c1cc(OC2CN(C(=O)OC(C)(C)C)C2)cc(C(=O)NCc2c(C)cc(C)[nH]c2=O)c1C)C1CCOCC1 [EPZ194, reference compound] | 0.106 µM | 0.023 µM | 0.062 µM | 0.011 µM | 9.91% | 7476 ± 1311 ng·h/mL | 59.5 ± 19.1 mL/min/lg | 4059 ± 1830 ng/mL | 2.13 ± 1.02 h | 0.83 ± 0.29 h |  |  |
| CCN(c1cc(OC2CNC2)cc(C(=O)NCc2c(C)cc(C)[nH]c2=O)c1C)C1CCOCC1 [EPZ195, reference compound] | 1.43 µM | 0.281 µM | 0.385 µM | 0.127 µM | 2.64% | 3071 ± 486 ng·h/mL | 36.5 ± 6.21 mL/min/lg | 945 ± 283 ng/mL | 5.12 ± 0.89 h | 1.42 ± 1.01 h |  |  |
| CCN(c1cc(OC2CN(C)C2)cc(C(=O)NCc2c(C)cc(C)[nH]c2=O)c1C)C1CCC(N(C)C)CC1 (stereo not drawn) [EPZ349, reference compound] | 0.563 µM | 0.11 µM | 0.104 µM | 0.033 µM | 12.8% | 3918 ± 1710 ng·h/mL | 149 ± 57.0 mL/min/lg | 1485 ± 860 ng/mL | 2.19 ± 1.32 h | 0.83 ± 0.29 h | 22.39% |  |
| CCN(c1cc(O[C@H]2C[C@H](N3CCOCC3)C2)cc(C(=O)NCc2c(C)cc(C)[nH]c2=O)c1C)C1CCC(F)(F)CC1 [Example 63, 3-((4,4-difluorocyclohexyl)(ethyl)amino)-N-((4,6-dimethyl-2-oxo-1,2-dihydropyridin-3-yl)methyl)-2-methyl-5-(trans-3-morpholinocyclobutoxy)benzamide] |  |  |  |  |  |  |  |  |  |  | 53.67% | 0.01 to 0.1 µM |
